Test results: US20250064886A1, “CARDIOVASCULAR AND CEREBROVASCULAR DRUG AND USE THEREOF” (HANGZHOU ADAMERCK PHARMLABS INC., priority 2021, published 2025)
Marks after values point to notes of the source that are not given here.

Key:
[1] = system: vascular endothelial injury induced thrombosis model in zebrafish; experiment: Preventative effect on vascular endothelial injury induced thrombosis, ponatinib zebrafish model (Example 1); format: in vivo; settings: 4.00 ng/tail injected
Method: Experimental method: 420 tails of 5 dpf wild type AB strain zebrafish were randomly selected and placed in a six-well plate, with 30 fish per well (experimental group). The fish were injected with compound (1), compound (2), compound (3), compound (4), compound (5), compound (6), compound (7), compound (8), compound (9), compound (10), and compound (11) (structural formula shown in Table 1) at a dose of 4.00 ng/tail, with positive control drug acetylsalicylic acid being administered by dissolving it in water at a concentration of 30.0 µg/mL. Normal control group (i.e. zebrafish treated with standard diluted water) and model control group were set up, with a capacity of 3 mL per well (experimental group). Except for normal control group, the remaining experimental groups were all given Punatinib by dissolving it in water to induce vascular endothelial injury induced thrombosis model in zebrafish. The zebrafish were stained with o-dianisidine after co-treatment with ponatinib and samples for a period of time under incubation conditions at 28° C.
After staining, 10 zebrafish in each group were randomly selected and photographed under the microscope, and the intensity of cardiac erythrocyte staining in zebrafish was analyzed using NIS-Elements D 3.20 advanced image-processing software, and the samples were evaluated for the preventative effect on vascular endothelial injury induced thrombosis by the statistical results of cardiac erythrocyte staining intensity.
The preventative effect on thrombosis is calculated as follows: […]
Statistical analysis was performed using SPSS software, and p<0.05 indicates significant differences

[2] = system: iron content in Erastin-induced neuronal cells; experiment: Iron content (PGSK probe) in Erastin-induced neuronal cells (Example 8); format: cell-based, rat; settings: Erastin 50 μM
Method: (§1) Experimental method: Primary neuron cells were incubated in a medium containing Erastin (final concentration of 50 μM) for 24 hours, and then incubated in a medium containing different concentrations of the test drug and Erastin (final concentration of 50 μM) for another 24 hours. After incubation, Real time PCR was used to detect mRNA expression of GPX4 in each group of cells, CCK8 assay was used to detect cell viability in each group of cells, C11-BODIPY probe method was used to detect intracellular lipid ROS levels in each group of cells, and PGSK probe method was used to detect iron content in cells.
(§2) The experimental data were expressed in means±SD, and statistical differences between groups were determined using one-way ANOVA and Tukey's test, with p-values less than 0.05 considered significant.
After incubation, the PGSK probe method was used to detect the intracellular iron content. The results were presented as Mean±SD. Compared with the control group, ***p<0.0001; Compared with the model group, #p<0.05, ##p<0.01.

[3] = system: vascular inflammation in high-glucose and high-fat zebrafish; experiment: Regressive effect on vascular inflammation in high-glucose and high-fat zebrafish (Example 9); format: in vivo
Method: Experimental method: 360 tails of 5 dpf macrophage fluorescent zebrafish were randomly selected and placed in beakers with 30 tails in each beaker, compound (1), compound (3), and compound (5) were given intravenously, and the positive control group was given atorvastatin calcium by dissolving it in water at a concentration of 30 μg/mL, while the normal control group (fish farming water-treated zebrafish) and the model control group were set up, and the volume of each beaker (experimental group) was 25 mL. Except for the normal control group, all other groups were given high-lipids and high-sucrose feed by dissolving it in water. Compound (1), compound (3) and compound (5) group were co-treated with high-lipids and high-sucrose feed for 30 h. The treatment was carried out up to 9 dpf, and 10 zebrafish were randomly selected from each experimental group to collect the intensity of the macrophage fluorescence within the tail vein and around the tail vein of the zebrafish under fluorescence microscope, and the results of the statistical analysis were used to evaluate the regressive effect of compound (1), compound (3), compound (5) on zebrafish vascular inflammation in the high sugar and high fat model.

[4] = system: Erastin-induced neuronal cells; experiment: Cell viability (CCK8) of Erastin-induced neuronal cells (Example 8); format: cell-based, rat; settings: for Cell viability (%): Erastin 50 μM
Method: as §1, §2
After incubation, the CCK8 experiment was used to detect the cell viability of each group of cells. The results were presented as Mean±SD. Compared with control group, ***p<0.0001. Compared with model control group, ^#P<0.05, ^##P<0.01.

[5] = system: GPX4 mRNA; experiment: GPX4 mRNA expression (real time PCR) in Erastin-induced neuronal cells (Example 8); format: cell-based, rat; settings: Erastin 50 μM
Method: as §1, §2
After incubation, real time PCR was used to detect the mRNA expression of GPX4 in each group of cells. The results were presented as Mean±SD. Compared with the control group, ***p<0.0001; Compared with the model group, #p<0.05, […].

[6] = system: lipid ROS levels in Erastin-induced nerve cells; experiment: Lipid ROS levels (C11-BODIPY probe) in Erastin-induced nerve cells (Example 8); format: cell-based, rat; settings: Erastin 50 μM
Method: as §1, §2
After incubation, the C11-BODIPY probe method was used to detect the lipid ROS levels in each group of cells. The results were presented as Mean±SD. Compared with the control group, ***p<0.0001; compared with the model group, #p<0.05, ##p<0.01.

[7] = system: rats with focal cerebral ischemia (MCAO)/reperfusion; experiment: Therapeutic administration, cerebral ischemia-reperfusion injury MCAO/R in rats (Example 7); format: in vivo, rat; settings: 6 mg/kg i.v. once 1 h after reperfusion
Method: Experimental method: SD rats were randomly divided into 11 groups, including pseudosurgery group, a model control group, positive control drug edaravone via intravenous injection (6 mg/kg, i.v.) group, positive control drug butylphthalide injection via intravenous injection (5 mg/kg, i.v.) group, compound (1) high-dose (24 mg/kg, i.v.), medium-dose (12 mg/kg, i.v.), low-dose (6 mg/kg, i.v.) via intravenous injection group, positive drug butylphthalide soft capsule via intragastric administration (60 mg/kg, i.g.) group, and compound via intragastric administration at (1) high-dose (60 mg/kg, i.g.), medium-dose (30 mg/kg, i.g.), low-dose (15 mg/kg, i.g.) group. A middle cerebral artery occlusion (MCAO) model for cerebral ischemia-reperfusion of male rats was prepared using the internal carotid suture-occluded method with an ischemic time of 90 min followed by reperfusion. Injection and oral administration for once were performed 1 h after reperfusion, and neurobehavioral scoring was performed on rats after 24 h to determine neurological function in rats; the cerebral infarction rate and cerebral water content of rats were determined by 2,3,5-triphenyltetrazolium chloride (TTC) staining.

## CC(=O)N[C@H](CSCC1OC2OC3C(CSC[C@@H](NC(C)=O)C(=O)[O-])OC(OC4C(CSC[C@@H](NC(C)=O)C(=O)[O-])OC(OC5C(CSC[C@@H](NC(C)=O)C(=O)[O-])OC(OC6C(CSC[C@@H](NC(C)=O)C(=O)[O-])OC(OC7C(CSC[C@@H](NC(C)=O)C(=O)[O-])OC(OC1C(O)C2O)C(O)C7O)C(O)C6O)C(O)C5O)C(O)C4O)C(O)C3O)C(=O)[O-].[Na+].[Na+].[Na+].[Na+].[Na+].[Na+] (stereo partly shown) [Compound (3)]
[1]
  Preventative effect on thrombosis (%): 17%
[1]; n = 10
  Cardiac erythrocyte staining intensity (pixels, mean ± SE): 3045 ± 219 pixels
[1]; n = 10, listed as compound (3)
  Cardiac erythrocyte staining intensity (pixels, mean ± SE): 3045 pixels
[2]; 1 μM, control = 100, PGSK fluorescence, weaker = more iron
  Iron content (PGSK probe): 56.48 ± 3.32^
[2]; 2.5 μM
  Iron content (PGSK probe): 62.3 ± 7
[2]; 5 μM
  Iron content (PGSK probe): 67.06 ± 11.62
[2]; 10 μM
  Iron content (PGSK probe): 71.61 ± 9.86^
[2]; 20 μM
  Iron content (PGSK probe): 76.67 ± 7.25^#
[2]; 40 μM
  Iron content (PGSK probe): 83.81 ± 9.91^##
[3]; 11.1 ng/tail intravenous
  Anti-inflammatory effect (%): 38*** %
  Fluorescence intensity of perivascular macrophage (pixels, Mean ± SE): 113809 ± 7995 pixels
[3]; 33.3 ng/tail intravenous
  Anti-inflammatory effect (%): 36*** %
  Fluorescence intensity of perivascular macrophage (pixels, Mean ± SE): 118747 ± 6434 pixels
[3]; 100 ng/tail intravenous
  Anti-inflammatory effect (%): 36*** %
  Fluorescence intensity of perivascular macrophage (pixels, Mean ± SE): 118504 ± 10539 pixels
[4]; 1 μM, 24 h, control = 100, Mean±SD
  Cell viability (%): 52.87 ± 2.55%
[4]; 2.5 μM
  Cell viability (%): 56.6 ± 4.76%
[4]; 5 μM
  Cell viability (%): 62.52 ± 8.51%
[4]; 10 μM
  Cell viability (%): 66.77 ± 6.27%
[4]; 20 μM
  Cell viability (%): 73.21 ± 8.1^# %
[4]; 40 μM
  Cell viability (%): 77.95 ± 6.34^## %
[4]; p<0.05
  Concentration above which cell viability was significantly increased compared with the model group: greater than 10 μM
[5]; 1 μM, control about 1.00, Mean±SD
  Expression of GPX4 mRNA: 0.4359 ± 0.05
[5]; 2.5 μM
  Expression of GPX4 mRNA: 0.4875 ± 0.01
[5]; 5 μM
  Expression of GPX4 mRNA: 0.5407 ± 0.06
[5]; 10 μM
  Expression of GPX4 mRNA: 0.6152 ± 0.07^##
[5]; 20 μM
  Expression of GPX4 mRNA: 0.6765 ± 0.07^##
[5]; 40 μM
  Expression of GPX4 mRNA: 0.7421 ± 0.08^##
[6]; 1 μM, control = 100, Mean±SD
  Lipid ROS levels (%): 146.56 ± 7.67%
[6]; 2.5 μM
  Lipid ROS levels (%): 141.34 ± 4.22%
[6]; 5 μM
  Lipid ROS levels (%): 136.81 ± 7.9%
[6]; 10 μM
  Lipid ROS levels (%): 132.38 ± 2.23%
[6]; 20 μM
  Lipid ROS levels (%): 125.33 ± 9.79^# %
[6]; 40 μM
  Lipid ROS levels (%): 120.37 ± 10.16^## %

## O=S(=O)(O)CCCCOCC1OC2OC3C(COCCCCS(=O)(=O)O)OC(OC4C(COCCCCS(=O)(=O)O)OC(OC5C(COCCCCS(=O)(=O)O)OC(OC6C(COCCCCS(=O)(=O)O)OC(OC7C(COCCCCS(=O)(=O)O)OC(OC8C(COCCCCS(=O)(=O)O)OC(OC1C(O)C2O)C(O)C8O)C(O)C7O)C(O)C6O)C(O)C5O)C(O)C4O)C(O)C3O (stereo not shown) [Compound (11)]
[1]
  Preventative effect on thrombosis (%): 79%
[1]; n = 10
  Cardiac erythrocyte staining intensity (pixels, mean ± SE): 4749 ± 12 pixels
[1]; n = 10, listed as compound (11)
  Cardiac erythrocyte staining intensity (pixels, mean ± SE): 4749 pixels

## CC1=NN(c2ccccc2)C(=O)C1 [Edaravone, edaravone, reference compound]
[7]
  Behavioral score: 1.62 ± 0.51
  Cerebral water content (%): 79.81 ± 1.03 %
[7]; after 24 h, mean ± SD, n = 8
  Cerebral infarction rate (%): 10.23 ± 7.87 %
